The test system of data set [1] is murine DSS model of ulcerative colitis. Put plainly: Murine DSS model of ulcerative colitis (acute). To be noted: 20 mg/kg oral gavage on days 4, 6, 8, 10; for efficacy in the murine DSS model of colitis: 2.5% DSS, C57BL/6 mice; for DSS-elicited body weight loss: FIG. 6E; for disease activity index (DAI): FIG. 6F; for colon length: day 12, FIG. 6B, 6C. Type of data set: in vivo, mouse. The protocol: FIGS. 6A-F illustrate efficacy of ARTX-339, ARTX-405A, ARTX-413, and ARTX-425P1 in the murine DSS model of ulcerative colitis. A. C57BL/6 mice (7-8-week old mice) were supplied with 2.5% DSS in their drinking water for 7 days. Starting on day 4 post DSS treatment, mice were dosed once every other day with 100 μL vehicle (0.25% sodium carboxymethylcellulose used in the formulation of ARTX compounds), or 100 μL ARTX-339, ARTX-405A, ARTX-413, or ARTX-425P1 at 20 mg/kg body weight by oral gavage on days 4, 6, 8, and 10. Mice were euthanized on day 12. FITC dextran was administered to the mice via oral gavage 4 hours preceding euthanization. Following euthanization, colons were dissected, and their length measured. B. Measurements of colon length. C. Photographs of dissected colons. D. Measurement of FITC-dextran in serum following euthanization. […] Higher levels of serum FITC-dextran following DSS-treatment is an indication of a loss of barrier function. E. Body weight was measured every other day starting at day 0 with the initiation of DSS treatment. F. Disease activity index (DAI) scores were assigned every other day. The higher the DAI score, the worse the symptoms. **** indicates p<0.0001; *** indicates p<0.001; ** indicates=p<0.01.
A murine dextran sodium sulfate (DSS)-elicited model of ulcerative colitis was utilized to measure the efficacy of compounds in vivo. Oral administration of DSS in drinking water, a chemical colitogen with anticoagulant properties, leads to disruption of gut epithelium causing enhanced gut permeability, inflammation, and severe damage of gut barrier function^71,72. The rationale for using the murine DSS^71,72 model of UC is that it is a well-established gut epithelial barrier disrupting model that can be used to model both acute and chronic UC^70,71.
Starting on day 4 post DSS treatment, mice were dosed once every other day with 100 μL vehicle (0.25% sodium carboxymethylcellulose used in the formulation of ARTX compounds), or 100 μL ARTX-339, ARTX-405A, ARTX-413, or ARTX-425P1 at 20 mg/kg body weight by oral gavage on days 4, 6, 8, and 10. Mice were euthanized on day 12. FITC dextran was administered to the mice via oral gavage 4 hours prior to euthanization. Following euthanization, colons were dissected, and their lengths were measured.

In data set [2] the test system is HT-29 and Caco-2 intestinal epithelial cell lines. The conditions noted are these: RNA-seq and qRT-PCR; cited from earlier work. On the technique in general: Real-time PCR tracks product formation cycle by cycle.
The test system of data set [3] is cytochrome P450 1A1 (Cyp1A1) and heme oxygenase 1 (HMOX1 or HO1) genes. The conditions noted are these: cited from earlier work.
For data set [4] the following is noted: pH 2.0 in the presence of gastric enzymes; cited from earlier work.
The subject of data set [5] is LPS-elicited mouse peritonitis model. The conditions noted are these: cited from earlier work.
In data set [6] the test system is bone marrow derived macrophages. To be noted: cited from earlier work.
Data set [7] relates to TNBS-induced colitis in mice. To be noted: cited from earlier work.
The subject of data set [8] is DSS-induced colitis in mice. To be noted: cited from earlier work.

Entries after “also recorded” stand apart in the source; their conditions may differ.

Data on three compounds can be found in US12202841B2, “Therapeutic agents for enhancing epithelial and/or endothelial barrier function” (ARTUS THERAPEUTICS, INC., priority 2022, dated 2025).

Take `Oc1cc(O)c2c(c1)C1(CCCC1)c1cc(F)ccc1-2` [ARTX-405A, 7′-fluorospiro[cyclopentane-1,9′-fluorene]-2′,4′-diol]: in data set [1], the “efficacy in the murine DSS model of colitis” value was “exhibited efficacy”, the “DSS-elicited body weight loss” value was “highly effective”, the “disease activity index (DAI)” value was “highly effective” and the colon length entry is “highly effective”.

On to `Oc1ccc2c(c1)COc1cc(O)ccc1-2` [UAS03], for which, in data set [2], the “expression of tight junction proteins claudin 4, ZO-1, and occludin 1” value was “upregulates”. Moreover, in data set [3], the “expression of Cyp1A1 and HO1 genes” value is “activated”. Also, in data set [4], the time stable entry is given as “at least 12 hours”. Besides, the “levels of LPS-induced TNF-α, IL-6, CXCL-1, and IL-1β” value in data set [5] and in data set [6] was “markedly decreased” each time. For the same compound, in data set [7] (TNBS model), the “potency relative to UroA” value is listed as “about 10 fold”. Further, the “beneficial effects in AhR−/− or Nrf2−/− mutant mice” value in data set [7] (TNBS-treated AhR−/− or Nrf2−/− mice) is listed as “not observed”. Also, in data set [7] (TNBS-treated mice, colons), the “claudin 4 (Cldn4) expression / protein levels” value is recorded as “induced the expression; also recorded: reversed a dramatic decrease”. Also, the “UC symptoms (body weight loss, colon weight/length ratio, gut permeability, inflammatory cytokines)” value in data set [7] (orally QD or BID for three days following TNBS, 20 mg/kg) is “dramatically reversed”. The “development of TNBS-elicited symptoms” value in data set [7] (pre-treated QD for 7 days at 20 mg/kg) is given as “blocked”. Further, the “protection in chronic DSS model” value in data set [8] (4 cycles of 2% DSS, 90 day experiment, UAS03 QD 20 mg/kg) is recorded as “protected against DSS-induced chronic colitis”. In data set [8] (mouse, in vivo), the “efficacy in acute and chronic DSS-induced colitis models” value is listed as “efficacious”.

`CC(C)[C@@H]1Oc2cc(O)ccc2-c2ccc(F)cc21` (single isomer, unassigned) [ARTX-425P1]: in data set [1], the “efficacy in the murine DSS model of colitis” value was “exhibited efficacy”, the “DSS-elicited body weight loss” value was “highly statistically significant”, the “disease activity index (DAI)” value is “highly statistically significant” and the colon length entry is recorded as “a statistically significant increase in colon length was not observed”.
